Data set [1] deals with T1, ABCG2 (Homo sapiens, UniProt Q9UNQ0).
T1 sequence (Q9UNQ0 1-655): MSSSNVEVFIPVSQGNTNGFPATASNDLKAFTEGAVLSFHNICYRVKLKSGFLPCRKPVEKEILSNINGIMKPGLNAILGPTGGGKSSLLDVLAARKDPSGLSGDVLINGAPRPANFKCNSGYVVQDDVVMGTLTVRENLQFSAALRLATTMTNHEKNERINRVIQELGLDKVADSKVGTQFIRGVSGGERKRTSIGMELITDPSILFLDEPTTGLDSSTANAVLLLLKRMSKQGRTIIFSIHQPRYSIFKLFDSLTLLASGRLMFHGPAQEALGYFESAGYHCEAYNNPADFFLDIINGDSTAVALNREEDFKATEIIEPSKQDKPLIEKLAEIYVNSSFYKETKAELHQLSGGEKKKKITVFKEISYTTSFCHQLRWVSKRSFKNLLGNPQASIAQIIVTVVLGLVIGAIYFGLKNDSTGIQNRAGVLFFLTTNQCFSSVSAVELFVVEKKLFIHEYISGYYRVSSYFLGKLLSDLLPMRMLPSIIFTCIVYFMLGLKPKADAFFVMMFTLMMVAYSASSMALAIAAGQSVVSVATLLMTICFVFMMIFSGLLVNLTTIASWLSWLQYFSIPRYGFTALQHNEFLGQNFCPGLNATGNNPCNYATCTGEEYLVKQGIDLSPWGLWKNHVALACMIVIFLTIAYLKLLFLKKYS
As to conditions: typical ABCG2 substrates, low capacity; read-out: Km value of transport by ABCG2; cited from earlier work.

The target in data set [2] is T1, ABCG2. Nature of the data set: inhibition of ABCG2-mediated [3H]estrone-3-sulfate transport in membrane vesicles. As to conditions: [3H]ES 500 nM, vesicle transport assay, HEK293 membrane vesicles. An excerpt:
Wild-type ABCG2 cDNA was inserted into the Nhe I site and Apa I site of pcDNA3.1(+) vector plasmid (Invitrogen, Carlsbad, Calif.), with a myc-tag sequence attached at the 5′ end. To prepare membrane vesicles, HEK293 cells were transiently transfected with an expression vector for ABCG2 or an empty vector using FuGENE6 (Roche Diagnostics, Indianapolis, Ind.). Forty-eight hours later, cells were harvested and the membrane vesicles were isolated using a standard method. The uptake study of [^3H]estrone-3-sulfate (ES, 500 nM) and [^14C]urate (28 μM) was performed.
Using membrane vesicles prepared from ABCG2-expressing cells, the inhibitory effect of urate on ABCG2-mediated transport of its typical substrate, ES (estrone-3-sulfate) was examined.
The inhibitory effect on the transport of [^3H]estrone-3-sulfate (ES, 500 nM), a typical substrate of ABCG2 was examined using the vesicle transport assay system.

The target of the next data set is T2, mouse Abcg2 (Mus musculus, UniProt Q7TMS5).
T2 construct: expressed in transfected cells; host or cells: HEK293 (transient transfection, myc-mAbcg2/pcDNA3.1(+)); cell membrane vesicles
T2 sequence (Q7TMS5 1-657): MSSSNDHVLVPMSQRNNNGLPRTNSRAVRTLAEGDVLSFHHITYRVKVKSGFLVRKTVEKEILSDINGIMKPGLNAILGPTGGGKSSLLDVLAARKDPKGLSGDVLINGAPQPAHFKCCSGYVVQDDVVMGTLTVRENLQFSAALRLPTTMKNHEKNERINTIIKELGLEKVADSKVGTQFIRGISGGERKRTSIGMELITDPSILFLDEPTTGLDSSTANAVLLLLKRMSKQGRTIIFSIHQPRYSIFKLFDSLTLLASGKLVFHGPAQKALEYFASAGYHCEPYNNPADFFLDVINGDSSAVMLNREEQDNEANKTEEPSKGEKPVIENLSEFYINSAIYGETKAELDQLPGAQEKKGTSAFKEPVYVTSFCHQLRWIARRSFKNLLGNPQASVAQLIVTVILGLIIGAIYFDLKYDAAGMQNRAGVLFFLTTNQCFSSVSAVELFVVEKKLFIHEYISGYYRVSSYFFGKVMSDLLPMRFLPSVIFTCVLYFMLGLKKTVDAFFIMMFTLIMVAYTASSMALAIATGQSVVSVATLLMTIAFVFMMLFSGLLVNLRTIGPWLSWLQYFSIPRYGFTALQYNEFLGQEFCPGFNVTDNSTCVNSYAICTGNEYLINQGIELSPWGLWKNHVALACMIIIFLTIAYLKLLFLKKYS
Nature of the data set: [14C]urate transport in mouse Abcg2-expressing membrane vesicles. The data set is classed as biochemical. The following applies: uric acid 250 μM to 4 mM, cell membrane vesicles. An excerpt: A mouse Abcg2 expression vector was constructed by amplifying a cDNA of mouse Abcg2 with a myc tag sequence attached to the N-terminus, integrating it into pGEM T-Easy Vector (Promega, Madison, Wis.), and then integrating it into a Not I site of a pcDNA3.1(+) vector via a restriction enzyme treatment.
Also, in order to confirm whether or not the mouse Abcg2 transports urate in the same manner as in human ABCG2, HEK293 cells into which the mouse myc-Abcg2 expression vector was transiently introduced were recovered, and cell membrane vesicles were prepared.
Transport experiments were performed using cell membrane vesicles and using radioisotope-labeled uric acid as a substrate. As a result, it was confirmed that the mouse Abcg2 also transports uric acid in the same manner as in human ABCG2. Also, transport experiments were performed in uric acid concentrations of 250 μM, 500 μM, 1 mM, 1.5 mM, 2 mM, and 4 mM, respectively. […] Whereby, it was shown that mouse Abcg2 is a high-capacity urate transporter which can function even in the presence of a high concentration of uric acid.

Substrate in data set [3]: O=c1[nH]c(=O)c2[nH]c(=O)[nH]c2[nH]1
Nature of the data set: ATP-dependent [14C]urate transport in ABCG2-expressing membrane vesicles. The data set is classed as biochemical, human. As to conditions: other: membrane vesicles from ABCG2-expressing HEK293 cells. How it is done:
As shown in FIG. 3 (A), an ATP-dependent urate transport was detected in ABCG2-expressing vesicles but not in control vesicles. This is the first evidence of a direct high-capacity urate transport via ABCG2. Because of a mild inhibitory effect on the ES transport, urate was assumed to be a high-capacity substrate of ABCG2. Indeed, as shown in FIG. 3 (B), ABCG2-mediated urate transport scarcely reached saturation at concentrations of 1 mM or less.
Typical ABCG2 substrates, e.g., sulfate conjugates such as ES, 4-methylumbelliferone sulfate, and E3040 sulfate, are transported by ABCG2 with low capacity (Km value of about 20 μM).

Structures can show the parent of a compound that is named as a salt.

The term Km denotes the concentration of substrate that gives half-maximal velocity. `Cc1cc(=O)oc2cc(OS(=O)(=O)O)ccc12` [4-methylumbelliferone sulfate]: the Michaelis constant (Km) on ABCG2 [1] is ~20 µM.

In the case of `Cc1cn([C@H]2C[C@H](N=[N+]=[N-])[C@@H](CO)O2)c(=O)[nH]c1=O` [AZT, 3′-azido-3′-deoxythymidine], on ABCG2 [2], the “inhibitory effect on the transport of [3H]estrone-3-sulfate” value was “inhibition”.

In the case of `CNc1nc2c(Cc3cccnc3)c(C)c(OS(=O)(=O)O)c(C)c2s1` [E3040 sulfate], on ABCG2 [1], the Km is ~20 µM.

With `C[C@]12CC[C@@H]3c4ccc(OS(=O)(=O)O)cc4CC[C@H]3[C@@H]1CCC2=O` [ES, estrone-3-sulfate], the “inhibitory effect on the transport of [3H]estrone-3-sulfate” value at ABCG2 [2] is “inhibition”. Besides, on ABCG2 [1], the Km is ~20 µM.

For `O=c1[nH]c(=O)c2[nH]c(=O)[nH]c2[nH]1` [urate], the “saturability of urate transport via mouse Abcg2” value at mouse Abcg2 is listed as “no saturability”.

B1: ABCG2 (Homo sapiens) (protein)
chain: T1 sequence (Q9UNQ0 1-655)
notes: expressed in transfected cells; host or cells: HEK293 (transient transfection, pcDNA3.1(+)); isolated membrane vesicles
The term Vmax denotes the rate approached at saturating substrate. In the case of B1, in data set [3], the Km came out at 8240 ± 1440 µM and the Vmax was 6.96 ± 0.89 nmol/min/mg (protein).

The values above are taken from patent US8940286B2, “Urate transporter, as well as method and kit for evaluating urate transport-related disease factor and inflammation-related disease factor, and test sample and drug” (The University of Tokyo, priority 2009, dated 2015).
